test system: Human venous whole blood (IFN-γ); assay: Human whole blood IFN-γ assay; type: cell-based; settings: Homo sapiens, 24 h, human whole blood, anti-CD3 plus anti-CD28, 24 hours; read-out: INFg Whole Blood Normalized Agonist EC50
Protocol: Assay 10: Human Whole Blood IFN-γ Assay
Human venous whole blood (22.5 μL per well), obtained from healthy donors, was pre-treated with compounds for one hour at 37° C. in a humidified 95% air/5% CO2 incubator. The blood was stimulated with 2.5 μL anti-human CD3 and anti-CD28 mAb at a final concentration of 1 μg/mL each for 24 hours at 37° C. IFN-γ in the supernatants was measured using AlphLISA kit (Cat #AL217).

Row | SMILES | EC50 [µM]
1 | CC[C@@H]1CN(c2cc(=O)n(C)c3ccc(C#N)nc23)CC[C@H]1Oc1ccc(C(C)C)cc1 (racemic) [Example 143, 8-((3R,4R)-3-ethyl-4-(4-isopropylphenoxy)piperidin-1-yl)-5-methyl-6-oxo-5,6-dihydro-1,5-naphthyridine-2-carbonitrile] | 2.2
2 | C[C@@H]1CN(c2cc(=O)n(C)c3ccc(C#N)nc23)CC[C@H]1Oc1ccc(F)cc1F (racemic) [Example 113, 8-((3R,4R)-4-(2,4-difluorophenoxy)-3-methylpiperidin-1-yl)-5-methyl-6-oxo-5,6-dihydro-1,5-naphthyridine-2-carbonitrile] | 4.1
3 | C[C@@H]1CN(c2cc(=O)n(C)c3ccc(C#N)nc23)CC[C@H]1Oc1ccc(C2CCCCC2)cc1 (racemic) [Example 106, 8-((3R,4R)-4-(4-cyclohexylphenoxy)-3-methylpiperidin-1-yl)-5-methyl-6-oxo-5,6-dihydro-1,5-naphthyridine-2-carbonitrile] | 2.2

same assay, conditions: Homo sapiens, human whole blood IFN-γ; read-out: INFg Whole Blood

Row | SMILES | EC50 [µM]
4 | C[C@@H]1CN(c2cc(=O)n(C)c3ccc(C#N)nc23)CC[C@@H]1OCc1ccc(OC(F)(F)F)cc1 (racemic) [Example 235, (+/−) 5-methyl-8-(cis-3-methyl-4-((4-(trifluoromethoxy)benzyl)oxy)piperidin-1-yl)-6-oxo-5,6-dihydro-1,5-naphthyridine-2-carbonitrile] | 5.2
5 | COc1ccnc(O[C@H]2CCN(c3cc(=O)n(C)c4ccc(C#N)nc34)C[C@H]2C)n1 [Example 218, 8-((3R,4S)-4-((4-methoxypyrimidin-2-yl)oxy)-3-methylpiperidin-1-yl)-5-methyl-6-oxo-5,6-dihydro-1,5-naphthyridine-2-carbonitrile] | 20
6 | C[C@@H]1CN(c2cc(=O)n(C)c3ccc(C(N)=O)nc23)CC[C@@H]1OCc1ccc(OC(F)(F)F)cc1 (racemic) [Example 236, (+/−) 5-methyl-8-(cis-3-methyl-4-((4-(trifluoromethoxy)benzyl)oxy)piperidin-1-yl)-6-oxo-5,6-dihydro-1,5-naphthyridine-2-carboxamide] | 20
7 | CC(C)c1ccnc(O[C@H]2CCN(c3cc(=O)n(C)c4ccc(C#N)nc34)C[C@H]2C)c1 [Example 211, 8-((3R,4S)-4-((4-isopropylpyridin-2-yl)oxy)-3-methylpiperidin-1-yl)-5-methyl-6-oxo-5,6-dihydro-1,5-naphthyridine-2-carbonitrile] | 3.9
8 | C[C@@H]1CN(c2cc(=O)n(C)c3ccc(C#N)nc23)CC[C@@H]1Oc1ccc(C2CC2)cn1 [Example 224, 8-((3R,4S)-4-((5-cyclopropylpyridin-2-yl)oxy)-3-methylpiperidin-1-yl)-5-methyl-6-oxo-5,6-dihydro-1,5-naphthyridine-2-carbonitrile] | 5.8

same assay, conditions: human whole blood IFN-γ; read-out: INFg Whole Blood

Row | SMILES | EC50 [µM]
9 | CC(C)c1ccnc(O[C@H]2CCN(c3cc(=O)n(C)c4ccc(C#N)nc34)C[C@H]2C)c1 (single isomer, unassigned) [Example 213] | 4.9
10 | C[C@@H]1CN(c2cc(=O)n(C)c3ccc(C#N)nc23)CC[C@@H]1Oc1ccc(C(F)(F)F)cc1 (single isomer, unassigned) [Example 188, 5-methyl-8-(cis-3-methyl-4-(4-(trifluoromethyl)phenoxy)piperidin-1-yl)-6-oxo-5,6-dihydro-1,5-naphthyridine-2-carbonitrile (rel)] | 6.4
11 | CO[C@@H]1CN(c2nc(=O)n(C)c3ccc(C#N)nc23)CC[C@H]1Oc1cccc(C(F)(F)F)c1 (racemic) [Example 277] | 4.5

same assay, conditions: human whole blood, anti-CD3 plus anti-CD28, 24 hours; read-out: INFg Whole Blood Normalized Agonist EC50

Row | SMILES | EC50 [µM]
12 | C[C@@H]1CN(c2cc(=O)n(C)c3ccc(C#N)nc23)CC[C@H]1Oc1ccc(C(F)(F)F)cc1 (single isomer, unassigned) [Example 99] | 2.9
13 | CC[C@@H]1CN(c2cc(=O)n(C)c3ccc(C#N)nc23)CC[C@H]1Oc1ccc(C(F)(F)F)cc1 (single isomer, unassigned) [Example 148] | 12
14 | CC[C@@H]1CN(c2cc(=O)n(C)c3ccc(C#N)nc23)CC[C@H]1Oc1ccc(C(C)(C)C)cc1 (single isomer, unassigned) [Example 153] | 1.7

Reference: US11964973B2 (priority 2019, dated 2024)
